The values below come from article PMC6462414 (Nature, 2018).

The subject of one data set is human erythrocytes. The experiment in a line: Haemolytic activity. It is filed as cell-based. As to conditions: 2% human erythrocytes, 1 h.
The subject of data set [1] is MRSA growing and persister cells. Kind of data set: Synergism with gentamicin. It is filed as cell-based, Staphylococcus aureus.
In data set [2] the test system is normal human primary hepatocytes. Kind of data set: Cytotoxicity, human primary hepatocytes. It is filed as cell-based. The following applies: 24 h.
Data set [3] deals with S. aureus MW2. It is filed as cell-based, Staphylococcus aureus. The following applies: for retinoid-resistant mutants by plating: 10^10 CFU MW2 plated on agar with 2.5×, 5× or 10× MIC.
For another data set, the system named is MRSA strain MW2. Kind of data set: MIC / growth inhibition of MRSA strain MW2. Type of data set: cell-based, Staphylococcus aureus. As to conditions: for minimum inhibitory concentration (MIC): MRSA strain MW2.
In data set [4] the test system is S. aureus MW2 persisters. The experiment in a line: Viability of MRSA MW2 persisters. Type of data set: cell-based, Staphylococcus aureus. As to conditions: for eradication of MRSA persisters: at 8 μg ml^−1; for killing of MRSA persister cells: stationary-phase MW2, 4 h.
Data set [5] has as its system Enterococcus faecium strains. The experiment in a line: Activity against Enterococcus faecium strains. Type of data set: cell-based.
Data set [6] concerns persisters formed by clinical isolates including VRS1. The experiment in a line: Viability of persisters of clinical S. aureus isolates. As to conditions: 8–10× MIC; including multi-drug resistant VRS1. Type of data set: cell-based, Staphylococcus aureus.
The subject of data set [7] is Exponential-phase S. aureus MW2. The experiment in a line: Cell lysis. Type of data set: cell-based, Staphylococcus aureus. As to conditions: 10× MIC, 4 h, OD600.
Data set [8] concerns Exponential-phase MRSA cells (strain MW2). The experiment in a line: Killing kinetics, exponential-phase MRSA MW2. It is filed as cell-based, Staphylococcus aureus. The following applies: 10× MIC, level of detection 2 × 10^2 CFU ml^−1.
Data set [9] deals with clinical S. aureus strains. The experiment in a line: Activity against panel of clinical S. aureus strains. It is filed as cell-based, Staphylococcus aureus.
Data set [10] deals with MW2-infected neutropenic mice. The experiment in a line: Deep-seated mouse thigh MRSA infection model. It is filed as in vivo. As to conditions: 20 mg kg^−1 i.p. alone or in combination with gentamicin 30 mg kg^−1 s.c.
Data set [11] deals with S. aureus MW2 persisters. Kind of data set: SYTOX Green membrane permeabilization, MW2 persisters. The following applies: SYTOX Green uptake.
The next data set deals with Gram-negative species. The experiment in a line: Activity against Gram-negative species. Type of data set: cell-based.
In data set [12] the test system is exponential-phase S. aureus MW2 cells. The experiment in a line: SYTOX Green membrane permeabilization, exponential-phase MW2. It is filed as cell-based, Staphylococcus aureus.
The subject of a further data set is MRSA MW2 biofilms. The experiment in a line: Persisters in MRSA biofilms. It is filed as cell-based, Staphylococcus aureus.
A short description of data set [13]: Giant unilamellar vesicle integrity. As to conditions: DOPC:DOPG 7:3.
Data set [14] relates to S. aureus MW2. The experiment in a line: Transmission electron microscopy of retinoid-treated cells. Type of data set: cell-based, Staphylococcus aureus. As to conditions: 10× MIC.
Data set [15] relates to MRSA-MW2-infected C. elegans. Kind of data set: C. elegans-MRSA killing assay. Type of data set: in vivo, Caenorhabditis elegans. As to conditions: for C. elegans protected against MW2-induced death: at concentrations above in vitro MICs.
Data set [16] has as its system S. aureus MW2 persisters. As to conditions: not told.
The conditions of data set [17]: cited from earlier work.
The nature of data set [18]: Hepatic and renal toxicity in mice. As to conditions: every 12 h for 3 days, i.p.; analogue 2 10–80 mg kg^−1, vancomycin 25 mg kg^−1; P > 0.7. Type of data set: in vivo, mouse.
Setting [19] is: 100 days serial passage in sub-MIC CD437.

Converted amounts (≈) assume the structure as drawn. Where two headings read alike, the source gives them in different places.

For the compound `O=C(O)c1ccc2cc(-c3ccc(O)c(C45CC6CC(CC(C6)C4)C5)c3)ccc2c1` [CD437], the “median haemolytic concentration (HC50)” value in the data set with human erythrocytes is reported as “greater than 32 μg ml^−1”. The synergism with gentamicin result in data set [1] is listed as “significant synergism”. Besides, in data set [2], the “median lethal concentration (LC50)” value is at least 20 µg/mL. Also, in the data set with S. aureus MW2 [3], the “retinoid-resistant mutants by plating” value is listed as “unable to obtain retinoid-resistant mutants”. Further, in the data set with S. aureus MW2 [3] (setting [19]), the “increase in resistance after serial passage” value (shortened to “increase in resistance”) is listed as “twofold”. In the data set on MRSA strain MW2, the “minimum inhibitory concentration (MIC)” value was found to be 1 µg/mL (≈ 2.51 µM). In the data set with S. aureus MW2 persisters [4], the “eradication of MRSA persisters” value is reported as “completely eradicated MRSA persisters” and the “killing of MRSA persister cells” value is on record as “killed MRSA-persister cells”. Further, the “activity against Enterococcus faecium strains” value in [5] is on record as “potent activity”. Also, in data set [6], the “time to complete eradication of persisters of 13 clinical isolates” value was in the range of 1 to 4 h. The “direct lysis of bacterial cells” value in [7] was “did not lyse bacterial cells directly”. In addition, the “levels of MW2 after two hours” value in [8] is given as “below the limit of detection”. For the same compound, in [9], the “activity against panel of clinical S. aureus strains” value is recorded as “potent activity”. Besides, the “efficacy in thigh infection model” value in data set [10] is “exhibited efficacy”. Also, the “permeabilization of MRSA-persister membranes” value in the data set with S. aureus MW2 persisters [11] is “induced rapid permeabilization”. Also, the “activity against Gram-negative species” value in the data set with Gram-negative species is “not against Gram-negative species”. Besides, the “membrane permeabilization (SYTOX Green uptake)” value (from here on “membrane permeabilization”) in data set [12] (exponential-phase MW2) was “induced membrane permeabilization”. Further, in the data set on MRSA MW2 biofilms (16× MIC), the “persisters in MRSA biofilms killed” value was “around 90%”. For the same compound, in the data set on MRSA MW2 biofilms (32× MIC), the “persisters in MRSA biofilms killed” value was around 100%. Also, the “integrity of giant unilamellar vesicles” value in [13] is recorded as “disrupted the integrity”. For the same compound, the “formation of mesosome-like structures” value in the data set on S. aureus MW2 [14] is reported as “caused the formation of mesosome-like structures”. For the same compound, in data set [15], the “C. elegans protected against MW2-induced death” value is 100%.

For the compound `O=C(O)c1ccc(-c2ccc3cc(O)c(C45CC6CC(CC(C6)C4)C5)cc3c2)cc1` [CD1530], the “median haemolytic concentration (HC50)” value in the data set with human erythrocytes is listed as “greater than 32 μg ml^−1”. Also, the synergism with gentamicin entry in data set [1] is recorded as “significant synergism”. The “median lethal concentration (LC50)” value in [2] was at least 20 µg/mL. The “retinoid-resistant mutants by plating” value with S. aureus MW2 [3] was “unable to obtain retinoid-resistant mutants”. In the data set on S. aureus MW2 [3] (setting [19]), the “increase in resistance” value was “twofold”. In addition, the “permeabilization of MRSA-persister membranes” value in the data set with S. aureus MW2 persisters [16] is “induced rapid permeabilization”. Further, in the data set with MRSA strain MW2, the “minimum inhibitory concentration (MIC)” value amounted to 1 µg/mL (≈ 2.51 µM). In addition, in the data set with S. aureus MW2 persisters [4], the “eradication of MRSA persisters” value is given as “completely eradicated MRSA persisters” and the “killing of MRSA persister cells” value is “killed MRSA-persister cells”. Besides, the “activity against Enterococcus faecium strains” value in data set [5] is listed as “potent activity”. In addition, the “time to complete eradication of persisters of 13 clinical isolates” value in data set [6] lay within 1 to 4 h. Besides, the “direct lysis of bacterial cells” value in data set [7] is reported as “did not lyse bacterial cells directly”. Besides, the “levels of MW2 after two hours” value in [8] is recorded as “below the limit of detection”. Also, the “activity against panel of clinical S. aureus strains” value in data set [9] was “potent activity”. In addition, in the data set on Gram-negative species, the “activity against Gram-negative species” value is “not against Gram-negative species”. In data set [12], the “membrane permeabilization” value is “induced membrane permeabilization”. Besides, the “persisters in MRSA biofilms killed” value in the data set with MRSA MW2 biofilms (16× MIC) is listed as “around 90%”. Also, the “persisters in MRSA biofilms killed” value with MRSA MW2 biofilms (32× MIC) is around 100%. For the same compound, in data set [13], the “integrity of giant unilamellar vesicles” value was “disrupted the integrity”. In the data set with S. aureus MW2 [14], the “formation of mesosome-like structures” value is recorded as “caused the formation of mesosome-like structures”. Moreover, the “C. elegans protected against MW2-induced death” value in [15] is on record as 100%.

For `COc1ccc(-c2ccc3cc(C(=O)O)ccc3c2)cc1C12CC3CC(CC(C3)C1)C2` [adapalene], the “activity against MRSA” value in the data set on MRSA strain MW2 (MRSA MW2) is recorded as “ineffective against MRSA”.

Turning to `O=C(O)/C=C/c1ccc(-c2ccc(O)c(C34CC5CC(CC(C5)C3)C4)c2)cc1` [adarotene], the “median haemolytic concentration (HC50)” value in the data set with human erythrocytes was “greater than 32 μg ml^−1”. The “retinoid-resistant mutants by plating” value with S. aureus MW2 [3] is “unable to obtain retinoid-resistant mutants”. The “increase in resistance” value in the data set on S. aureus MW2 [3] (setting [19]) was “twofold”. Further, the MIC in the data set on MRSA strain MW2 (Staphylococcus aureus, MRSA, read-out: minimum inhibitory concentration (MIC)) was found to be 2 µg/mL (≈ 5.34 µM). The “killing of MRSA persister cells” value in the data set on S. aureus MW2 persisters [4] was “inactive against persister cells”. Besides, in [17], the excretion result is “excreted rapidly”. Moreover, the “membrane permeabilization” value in data set [12] (exponential-phase MW2) is listed as “induced membrane permeabilization”. Further, the “integrity of giant unilamellar vesicles” value in data set [13] is recorded as “disrupted the integrity”. Besides, the “MRSA-induced death of C. elegans” value in data set [15] (in vivo) is “prevented the MRSA-induced death of C. elegans”.

`O=C(O)c1cn(C2CC2)c2cc(N3CCNCC3)c(F)cc2c1=O` [ciprofloxacin]: in the data set on S. aureus MW2 [3] (serial passage in ciprofloxacin for 100 days), the “increase in resistance” value amounted to 256 fold.

For the compound `CN[C@H](CC(C)C)C(=O)N[C@H]1C(=O)N[C@@H](CC(N)=O)C(=O)N[C@H]2C(=O)N[C@H]3C(=O)N[C@H](C(=O)N[C@H](C(=O)O)c4cc(O)cc(O)c4-c4cc3ccc4O)[C@H](O)c3ccc(c(Cl)c3)Oc3cc2cc(c3O[C@@H]2O[C@H](CO)[C@@H](O)[C@H](O)[C@H]2O[C@H]2C[C@](C)(N)[C@H](O)[C@H](C)O2)Oc2ccc(cc2Cl)[C@H]1O` [vancomycin], the “ALT and BUN versus control” value in data set [18] was “lack of significant differences”.

For daptomycin, in the data set with S. aureus MW2 [3] (serial passage in daptomycin for 15 days), the “increase in resistance” value is recorded as “tenfold”.
